Test results: publication PMC5218480 (PLoS ONE, 2017)

Tested on: MV-4-11 cells
Assay: Gene expression microarray analysis (Affymetrix PrimeView) and GSEA
Format: cell-based, human
Parameters: RFU PODN (11730768_x_at) / Fold change /veh PODN (11730768_x_at) / RFU LINC00158 (11744669_a_at) / Fold change /veh LINC00158 (11744669_a_at) / RFU DUSP10 (11751237_a_at) / Fold change /veh DUSP10 (11751237_a_at) / RFU ID3 (11757404_x_at) / Fold change /veh ID3 (11757404_x_at) / RFU PLEKHG5 (11737974_s_at) / Fold change /veh PLEKHG5 (11737974_s_at) / RFU LRRC4B (11730491_at) / Fold change /veh LRRC4B (11730491_at) / RFU GIMAP4 (11747438_a_at) / Fold change /veh GIMAP4 (11747438_a_at) / RFU KRT8 (11758183_x_at) / Fold change /veh KRT8 (11758183_x_at) / RFU CNN1 (11734310_a_at) / Fold change /veh CNN1 (11734310_a_at) / RFU VPS37D (11726825_at) / Fold change /veh VPS37D (11726825_at) / RFU C10orf10 (11716522_x_at) / Fold change /veh C10orf10 (11716522_x_at) / RFU KIR2DL2 /// KIR2DL4 /// KIR2DL5A /// KIR2DL5B /// KIR2DS1 /// KIR2DS2 /// KIR2DS3 /// KIR2DS4 /// KIR3DL3 /// KIR3DL3 /// KIR3DS1 (11738374_at) / Fold change /veh KIR2DL2 /// KIR2DL4 /// KIR2DL5A /// KIR2DL5B /// KIR2DS1 /// KIR2DS2 /// KIR2DS3 /// KIR2DS4 /// KIR3DL3 /// KIR3DL3 /// KIR3DS1 (11738374_at) / RFU C1QL1 (11718748_at) / Fold change /veh C1QL1 (11718748_at) / RFU TMPRSS4 (11747572_a_at) / Fold change /veh TMPRSS4 (11747572_a_at) / RFU HAMP (11756126_x_at) / Fold change /veh HAMP (11756126_x_at) / RFU RNFT2 (11725882_a_at) / Fold change /veh RNFT2 (11725882_a_at) / RFU NR4A2 (11747474_a_at) / Fold change /veh NR4A2 (11747474_a_at) / RFU ABCC12 (11746883_a_at) / Fold change /veh ABCC12 (11746883_a_at) / RFU TMEM136 (11760407_x_at) / Fold change /veh TMEM136 (11760407_x_at) / RFU CLDN22 /// WWC2 (11732394_at) / Fold change /veh CLDN22 /// WWC2 (11732394_at) / RFU HLA-DPB1 (11760878_x_at) / Fold change /veh HLA-DPB1 (11760878_x_at) / RFU SPINT1 (11716480_a_at) / Fold change /veh SPINT1 (11716480_a_at) / RFU GAP43 (11754022_s_at) / Fold change /veh GAP43 (11754022_s_at) / RFU A4GNT (11735810_at) / Fold change /veh A4GNT (11735810_at) / RFU PRB3 (11715151_x_at) / Fold change /veh PRB3 (11715151_x_at) / RFU TUBB4B (11761932_at) / Fold change /veh TUBB4B (11761932_at) / RFU CAPN14 (11732068_a_at) / Fold change /veh CAPN14 (11732068_a_at) / RFU TMCC2 (11721928_a_at) / Fold change /veh TMCC2 (11721928_a_at) / RFU IRGQ (11745062_a_at) / Fold change /veh IRGQ (11745062_a_at) / RFU FAM174B (11720279_a_at) / Fold change /veh FAM174B (11720279_a_at) / RFU TMPRSS4 (11748680_a_at) / Fold change /veh TMPRSS4 (11748680_a_at) / RFU FAM212B (11763350_a_at) / Fold change /veh FAM212B (11763350_a_at) / RFU PLEKHG5 (11743358_a_at) / Fold change /veh PLEKHG5 (11743358_a_at) / RFU ZSCAN30 (11745921_a_at) / Fold change /veh ZSCAN30 (11745921_a_at) / RFU CMKLR1 (11741424_a_at) / Fold change /veh CMKLR1 (11741424_a_at) / RFU LOC101060620 /// MAPK8IP1 (11723275_at) / Fold change /veh LOC101060620 /// MAPK8IP1 (11723275_at) / RFU SPTSSB (11747773_x_at) / Fold change /veh SPTSSB (11747773_x_at) / RFU PRSS12 (11739890_at) / Fold change /veh PRSS12 (11739890_at) / RFU BIN1 (11741810_x_at) / Fold change /veh BIN1 (11741810_x_at) / RFU WNT11 (11732464_a_at) / Fold change /veh WNT11 (11732464_a_at) / RFU C10orf10 (11716521_a_at) / Fold change /veh C10orf10 (11716521_a_at) / RFU C5orf56 (11738089_at) / Fold change /veh C5orf56 (11738089_at) / RFU CYB561 (11721691_x_at) / Fold change /veh CYB561 (11721691_x_at) / RFU ANKRD19P (11752326_a_at) / Fold change /veh ANKRD19P (11752326_a_at) / RFU OR2T12 /// OR2T33 /// OR2T8 (11738714_s_at) / Fold change /veh OR2T12 /// OR2T33 /// OR2T8 (11738714_s_at) / RFU VCAN (11748164_a_at) / Fold change /veh VCAN (11748164_a_at) / RFU JSRP1 (11732532_at) / Fold change /veh JSRP1 (11732532_at) / RFU KRTAP10-11 (11738290_x_at) / Fold change /veh KRTAP10-11 (11738290_x_at) / RFU MYO3A (11730013_a_at) / Fold change /veh MYO3A (11730013_a_at) / RFU EBF3 (11725865_a_at) / Fold change /veh EBF3 (11725865_a_at) / RFU CAMK2N1 (11719241_x_at) / Fold change /veh CAMK2N1 (11719241_x_at) / RFU C5orf56 (11738088_a_at) / Fold change /veh C5orf56 (11738088_a_at) / RFU OLFML3 (11715873_a_at) / Fold change /veh OLFML3 (11715873_a_at) / RFU LOC100653217 /// NTM (11731650_a_at) / Fold change /veh LOC100653217 /// NTM (11731650_a_at) / RFU MAPK11 (11762145_a_at) / Fold change /veh MAPK11 (11762145_a_at) / RFU FIZ1 (11724087_x_at) / Fold change /veh FIZ1 (11724087_x_at) / RFU OASL (11726364_x_at) / Fold change /veh OASL (11726364_x_at) / RFU SOX15 (11748057_x_at) / Fold change /veh SOX15 (11748057_x_at) / RFU CD79A (11719716_a_at) / Fold change /veh CD79A (11719716_a_at) / RFU HIST1H1D (11736915_at) / Fold change /veh HIST1H1D (11736915_at) / RFU CASKIN2 (11723855_a_at) / Fold change /veh CASKIN2 (11723855_a_at) / RFU LOC730098 (11760151_x_at) / Fold change /veh LOC730098 (11760151_x_at) / RFU OR4N2 (11742367_at) / Fold change /veh OR4N2 (11742367_at) / RFU PRRT2 (11749266_a_at) / Fold change /veh PRRT2 (11749266_a_at) / RFU SNX32 (11753110_a_at) / Fold change /veh SNX32 (11753110_a_at) / RFU CDHR5 (11726645_a_at) / Fold change /veh CDHR5 (11726645_a_at) / RFU RCAN1 (11760418_a_at) / Fold change /veh RCAN1 (11760418_a_at) / RFU FAM167A (11723789_a_at) / Fold change /veh FAM167A (11723789_a_at) / RFU FAM26E (11764081_at) / Fold change /veh FAM26E (11764081_at) / RFU ISYNA1 (11749810_s_at) / Fold change /veh ISYNA1 (11749810_s_at) / RFU ACY1 (11761880_at) / Fold change /veh ACY1 (11761880_at) / RFU 11764098_at / Fold change /veh 11764098_at / RFU SAMD14 (11745864_x_at) / Fold change /veh SAMD14 (11745864_x_at) / RFU NPB (11741838_a_at) / Fold change /veh NPB (11741838_a_at) / RFU TMPRSS6 (11731388_a_at) / Fold change /veh TMPRSS6 (11731388_a_at) / RFU KRTAP10-2 (11738614_at) / Fold change /veh KRTAP10-2 (11738614_at) / RFU ARHGAP8 /// PRR5-ARHGAP8 (11727945_x_at) / Fold change /veh ARHGAP8 /// PRR5-ARHGAP8 (11727945_x_at) / RFU KRTAP5-7 /// NADSYN1 (11734609_at) / Fold change /veh KRTAP5-7 /// NADSYN1 (11734609_at) / RFU RASL12 (11751679_a_at) / Fold change /veh RASL12 (11751679_a_at) / RFU CDKN2B (11736163_a_at) / Fold change /veh CDKN2B (11736163_a_at) / RFU PRF1 (11729649_at) / Fold change /veh PRF1 (11729649_at) / RFU, ZNF638 /// ZNF638-IT1 / Fold change vs veh, ZNF638 /// ZNF638-IT1 / RFU, PANK3 / Fold change vs veh, PANK3 / RFU, SH3YL1 / Fold change vs veh, SH3YL1 / RFU, ZEB2 / Fold change vs veh, ZEB2 / RFU, NRIP1 / Fold change vs veh, NRIP1 / RFU, PTTG1IP / Fold change vs veh, PTTG1IP / RFU, CAPN2 / Fold change vs veh, CAPN2 / RFU, MED14 / Fold change vs veh, MED14 / RFU, SNORA58 / Fold change vs veh, SNORA58 / RFU, C1orf63 / Fold change vs veh, C1orf63 / RFU, LRRFIP1 / Fold change vs veh, LRRFIP1 / RFU, NDUFAF7 / Fold change vs veh, NDUFAF7 / RFU, SLC12A2 / Fold change vs veh, SLC12A2 / RFU, IBTK / Fold change vs veh, IBTK / RFU, ESF1 / Fold change vs veh, ESF1 / Fold change vs veh, TMEM50B / RFU, TAOK1 / Fold change vs veh, TAOK1 / RFU, ACBD3 / Fold change vs veh, ACBD3 / RFU, TMA16 / Fold change vs veh, TMA16 / RFU, RWDD3 / Fold change vs veh, RWDD3 / RFU, BCAT1 / Fold change vs veh, BCAT1 / RFU, EDEM3 / Fold change vs veh, EDEM3 / RFU, TMEM33 / Fold change vs veh, TMEM33 / RFU, WDR75 / Fold change vs veh, WDR75 / RFU, AHCTF1 / Fold change vs veh, AHCTF1 / RFU, TFRC / Fold change vs veh, TFRC / RFU, ZDHHC17 / Fold change vs veh, ZDHHC17 / RFU, NOM1 / Fold change vs veh, NOM1 / RFU, ARL8B / Fold change vs veh, ARL8B / RFU, ZBTB11 / Fold change vs veh, ZBTB11 / RFU, TAMM41 / Fold change vs veh, TAMM41 / RFU, KIAA1704 /// LOC100996395 / Fold change vs veh, KIAA1704 /// LOC100996395 / RFU, ING1 / Fold change vs veh, ING1 / RFU, TRMT61B / Fold change vs veh, TRMT61B / RFU, FUBP3 / Fold change vs veh, FUBP3 / RFU, TP53 / Fold change vs veh, TP53 / RFU, TNKS2 / Fold change vs veh, TNKS2 / RFU, ZFP14 / Fold change vs veh, ZFP14 / RFU, ACTR2 / Fold change vs veh, ACTR2 / RFU, PPP3R1 / Fold change vs veh, PPP3R1 / RFU, PIK3R1 / Fold change vs veh, PIK3R1 / RFU, HNRNPA1 / Fold change vs veh, HNRNPA1 / RFU, RNF170 / Fold change vs veh, RNF170 / RFU, ZNF28 / Fold change vs veh, ZNF28 / RFU, RNGTT / Fold change vs veh, RNGTT / RFU, OGT / Fold change vs veh, OGT / RFU, BRD1 / Fold change vs veh, BRD1 / RFU, MARS / Fold change vs veh, MARS / RFU, ZNF655 / Fold change vs veh, ZNF655 / RFU, FAHD1 / Fold change vs veh, FAHD1 / RFU, BDP1 / Fold change vs veh, BDP1 / RFU, LRRCC1 / Fold change vs veh, LRRCC1 / RFU, ARID1A / Fold change vs veh, ARID1A / RFU, ZNF146 / Fold change vs veh, ZNF146 / RFU, ZNF330 / Fold change vs veh, ZNF330 / RFU, GPN3 / Fold change vs veh, GPN3 / RFU, C9orf123 / Fold change vs veh, C9orf123 / RFU, N4BP2L2 / Fold change vs veh, N4BP2L2 / RFU, ARFIP1 / Fold change vs veh, ARFIP1 / RFU, FAM179B / Fold change vs veh, FAM179B / RFU, BCL10 / Fold change vs veh, BCL10 / RFU, UHRF1BP1L / Fold change vs veh, UHRF1BP1L / RFU, BET1 / Fold change vs veh, BET1 / RFU, CNOT2 / Fold change vs veh, CNOT2 / RFU, ZNF268 / Fold change vs veh, ZNF268 / Fold change vs veh, ZNF507 / RFU, DGCR2 / Fold change vs veh, DGCR2 / RFU, WDSUB1 / Fold change vs veh, WDSUB1 / Fold change vs veh, HSP90B1 /// MIR3652 / RFU, ADSS / Fold change vs veh, ADSS / RFU, GK / Fold change vs veh, GK / RFU, ZNF148 / Fold change vs veh, ZNF148 / RFU, TAF9 / Fold change vs veh, TAF9 / RFU, SLC1A5 / Fold change vs veh, SLC1A5 / RFU, SLMO2 / Fold change vs veh, SLMO2 / RFU, ABCC4 / Fold change vs veh, ABCC4 / RFU, LOC101060439 /// RAP1B / Fold change vs veh, LOC101060439 /// RAP1B / RFU, RFX7 / Fold change vs veh, RFX7 / RFU, GTPBP10 / Fold change vs veh, GTPBP10 / RFU, CNEP1R1 / Fold change vs veh, CNEP1R1 / RFU, BIVM-ERCC5 /// ERCC5 / Fold change vs veh, BIVM-ERCC5 /// ERCC5 / RFU, ILF3 / Fold change vs veh, ILF3 / RFU 11762660_at / Fold change /veh 11762660_at / RFU VCAN (11757783_s_at) / Fold change /veh VCAN (11757783_s_at) / RFU DDX43 (11728927_at) / Fold change /veh DDX43 (11728927_at) / RFU KRT8 (11758188_x_at) / Fold change /veh KRT8 (11758188_x_at) / RFU NKD1 (11759106_at) / Fold change /veh NKD1 (11759106_at) / RFU SRD5A1 (11742802_a_at) / Fold change /veh SRD5A1 (11742802_a_at) / RFU TPSAB1 /// TPSB2 (11721975_s_at) / Fold change /veh TPSAB1 /// TPSB2 (11721975_s_at) / RFU GSTM3 (11746129_a_at) / Fold change /veh GSTM3 (11746129_a_at) / RFU IL23R (11737362_x_at) / Fold change /veh IL23R (11737362_x_at) / RFU TMEM51 (11727254_a_at) / Fold change /veh TMEM51 (11727254_a_at) / RFU PIWIL2 (11732686_x_at) / Fold change /veh PIWIL2 (11732686_x_at) / RFU ORM1 (11744905_x_at) / Fold change /veh ORM1 (11744905_x_at) / RFU CCDC152 (11743942_at) / Fold change /veh CCDC152 (11743942_at) / RFU ECM1 (11717891_a_at) / Fold change /veh ECM1 (11717891_a_at) / RFU IL23R (11748794_a_at) / Fold change /veh IL23R (11748794_a_at) / RFU TNFAIP8L3 (11732012_x_at) / Fold change /veh TNFAIP8L3 (11732012_x_at) / RFU MBOAT4 (11741988_at) / Fold change /veh MBOAT4 (11741988_at) / RFU 11764193_at / Fold change /veh 11764193_at / RFU TMEM53 (11763286_at) / Fold change /veh TMEM53 (11763286_at) / RFU MAGEB2 (11727129_at) / Fold change /veh MAGEB2 (11727129_at) / RFU TMEM200A (11744735_a_at) / Fold change /veh TMEM200A (11744735_a_at) / RFU CCDC152 (11751479_a_at) / Fold change /veh CCDC152 (11751479_a_at) / RFU FAM211A (11726209_a_at) / Fold change /veh FAM211A (11726209_a_at) / RFU RGS16 (11746705_a_at) / Fold change /veh RGS16 (11746705_a_at) / RFU VCAN (11755009_s_at) / Fold change /veh VCAN (11755009_s_at) / RFU RHOB (11743442_s_at) / Fold change /veh RHOB (11743442_s_at) / RFU RGS16 (11720943_a_at) / Fold change /veh RGS16 (11720943_a_at) / RFU RGS16 (11720944_at) / Fold change /veh RGS16 (11720944_at) / RFU, VPS4B / Fold change vs veh, VPS4B / RFU, CREB1 / Fold change vs veh, CREB1 / RFU, DNAJC13 / Fold change vs veh, DNAJC13 / RFU, GNAQ / Fold change vs veh, GNAQ / RFU, CDK5R1 / Fold change vs veh, CDK5R1 / RFU, ZRANB3 / Fold change vs veh, ZRANB3 / RFU, CUL4A / Fold change vs veh, CUL4A / RFU, CCNY / Fold change vs veh, CCNY / RFU, UFL1 / Fold change vs veh, UFL1 / RFU, COG3 / Fold change vs veh, COG3 / RFU, DIAPH2 / Fold change vs veh, DIAPH2 / RFU, SKA2 / Fold change vs veh, SKA2 / RFU, AFF3 / Fold change vs veh, AFF3 / RFU, LMF1 / Fold change vs veh, LMF1 / RFU, IPO11 / Fold change vs veh, IPO11 / RFU, DFFB / Fold change vs veh, DFFB / RFU, FOXP1 / Fold change vs veh, FOXP1 / RFU, CARD8 / Fold change vs veh, CARD8 / RFU, STRN3 / Fold change vs veh, STRN3 / RFU, ADK / Fold change vs veh, ADK / RFU, RASSF2 / Fold change vs veh, RASSF2 / RFU, WIPF1 / Fold change vs veh, WIPF1 / RFU, LARP1B / Fold change vs veh, LARP1B / RFU, RASA1 / Fold change vs veh, RASA1 / RFU, RB1 / Fold change vs veh, RB1 / RFU, PPFIA1 / Fold change vs veh, PPFIA1 / RFU, MAT2A / Fold change vs veh, MAT2A / RFU, CCT5 / Fold change vs veh, CCT5 / RFU, WDR92 / Fold change vs veh, WDR92 / RFU, CUX1 / Fold change vs veh, CUX1 / RFU, TTC7A / Fold change vs veh, TTC7A / RFU, TMEM135 / Fold change vs veh, TMEM135 / RFU, DEPTOR / Fold change vs veh, DEPTOR / RFU, CPM / Fold change vs veh, CPM / RFU, DNAJB6 / Fold change vs veh, DNAJB6 / RFU, CACNA2D3 / Fold change vs veh, CACNA2D3 / RFU, DTX4 / Fold change vs veh, DTX4 / RFU, TFCP2 / Fold change vs veh, TFCP2 / RFU, GMCL1 /// GMCL1P1 / Fold change vs veh, GMCL1 /// GMCL1P1 / RFU, AEBP2 / Fold change vs veh, AEBP2 / RFU, SNHG1 /// SNORD22 /// SNORD25 /// SNORD26 /// SNORD27 /// SNORD28 /// SNORD29 /// SNORD31 / Fold change vs veh, SNHG1 /// SNORD22 /// SNORD25 /// SNORD26 /// SNORD27 /// SNORD28 /// SNORD29 /// SNORD31 / Fold change (Aza/veh), C12orf56 (ProbeSet 11735607_a_at) / Fold change (ACY-1035/veh), C12orf56 (ProbeSet 11735607_a_at) / Fold change (Aza/veh), FGFR1OP (ProbeSet 11751329_s_at) / Fold change (ACY-1035/veh), FGFR1OP (ProbeSet 11751329_s_at) / Fold change (Aza/veh), VPS36 (ProbeSet 11739960_a_at) / Fold change (ACY-1035/veh), VPS36 (ProbeSet 11739960_a_at) / RFU SYPL1 (11715823_x_at) / Fold change /veh SYPL1 (11715823_x_at) / RFU IGFBP7 (11715501_s_at) / Fold change /veh IGFBP7 (11715501_s_at) / RFU REEP3 (11722064_at) / Fold change /veh REEP3 (11722064_at) / RFU IGLL1 (11728026_x_at) / Fold change /veh IGLL1 (11728026_x_at): dose or concentration left out as unconfirmed
Conditions: ProbeSet 11720566_at; LIST D

Structure (SMILES): Nc1ncn([C@@H]2O[C@H](CO)[C@@H](O)[C@H]2O)c(=O)n1 [azacitidine]
- Fold change vs veh, BCAT1: 0.67
